Assay results published in patent US11014934B2, “Antiseptic drug” (AO “TATKHIMFARMPREPARATY”, priority 2017, dated 2021).

Experiments:
[1] = test system: Bovine rhinotracheitis virus (herpes virus family), vaccine strain TK-A (VIEV)-V2; test: Antiviral (virulicidal) activity, cytopathogenic effect on LCE cells; type: cell-based, IBR virus; settings: for destruction of the monolayer, drug with the virus: virus incubated with drug one hour, LCE cells 72 hours; for concentration with virulicidal effect: herpes virus type 1, infectious titer 6.0 Ig TCD50/ml
Protocol: The study of the antiviral activity of compound I in vitro was carried out in accordance with [D. L. Kuznetsov, A. YA. Samuylenko, V. I. Belousov Immunofermentnaya diagnostika IRT KRS. Veterinariya.—2002.—No 3.—S. 22-25. D. L. Kuznetsov, A. Y. ? Samuylenko, V. I. Belousov Enzyme-linked immunosorbent assay for cattle IBR. Veterinary medicine.—2002.—No 3.—P. 22-25].
Cells of a light cow embryo (LCE) are obtained from the Federal State Budgetary Institution “All-Russian Institute of Experimental Veterinary Medicine”, Moscow. Bovine rhinotracheitis virus (herpes virus family), vaccine strain “TK-A (VIEV)-V2” was obtained from the Federal State Budgetary Institution “All-Russian Institute of Experimental Veterinary Medicine”, Moscow.
Evaluation of the antiviral activity of compound I was carried out in an appropriate medium on LCE cells that were infected with the IBR virus belonging to the type 1 herpes virus family.
The virus was incubated in the presence of compound I in a culture medium at 37° C. for one hour at various concentrations; miramistin and benzalkonium chloride served as control preparations. After incubation of the virus with substances, it was added to the cell culture, which was then incubated at 37° C., 5% CO2 for 72 hours.
Evaluation of the cytopathogenic effect was carried out visually by the state of the cell monolayer as compared with the controls (virus without incubation with the drug, the studied drug concentrations without the virus). The virus titer was calculated using the method of Reed-Muench in the modification of Ashmarin and expressed in Ig TCD50/ml.

Rh. Oryzae = test: Sensitivity of microscopic fungi in solution (colonies after exposure); type: cell-based
Protocol: For the preparation of inoculum, were respectively used pure (2-5) days cultures of yeast and mycelial fungi, grown on Saburo's dense nutrient broth. Inoculum for plating was prepared in different ways, depending on the type of fungi. Thus, yeast crops (C. albicans) were prepared by washing the culture from an agar stroke. Cultures of mycelial fungi (Rh. oryzae, Asp. fumigatus) were pre-degraded in a pounder. A suspension of microorganisms was prepared in a sterile isotonic sodium chloride solution, bringing the inoculum density to 5 UNITS (GISK [State Research Institute of Standardization and Control] named after L. A. Tarasevich) or according to the McFarland standard 1 UNIT with a concentration of at least 1×10^6 CFU/ml, considering that the size of the fungal elements is approximately 10 times the size of bacteria (this provided the possibility of creating a mixture of biocide with suspension, the concentration of microorganisms of the order of 1×10^5 CFU/ml).
Solutions of compound I, miramistin, and benzalkonium chloride in working concentrations (0.1%, 0.2%, 0.3%) were poured into sterile 0.9 ml tubes. 0.1 ml of microbial suspension was added to test tubes with disinfectant solutions and mixed by shaking for several seconds. The exposition lasted for 1, 5, and 15 minutes. After required temporary exposure for action of the disinfectant, 0.5 ml of the neutralizer solution was added and mixed by shaking.
Then, 0.1 ml of the mixture was inoculated on a dense nutrient medium and the plates with inoculate were placed in a thermostat with a temperature of 27° C. for (2-4) days for yeast and (5-7) days for mycelial fungi, respectively.
After the time required for the cultivation of microorganisms of this species, the results were counted according to the number of colonies grown on the Petri dish. In the absence of growth, the time for culturing microorganisms was increased by a factor of 2. The grown colonies were subjected to microscopy.
The tested substances were studied on clinical and archival strains of yeast and mycelial fungi. As comparison drugs, drugs commonly used in clinical practice were used: miramistin and benzalconium chloride. After the required exposure time for action of the disinfectant, a series of 0.1 ml mixture was aseptically plated on the surface of a dense nutrient medium in Petri dishes. After the time of cultivation of microorganisms, the results were counted according to the number of colonies grown on the Petri dish.

`CCCCCCCCCCCC[N+](C)(C)Cc1cnc(C[N+](C)(C)CCCCCCCCCCCC)c2c1COC(CC)O2` (centres unmarked) [Compound I, 5,8-(Bis(methylene (N, N-dimethyl-N-dodecylammonium))-2-ethyl-4H-[1,3]dioxino [4,5-c]pyridiniumdichloride] was tested, and the “destruction of the monolayer, drug with the virus” value (“destruction of the monolayer, drug” for short) ([1]; 150 μg/ml) was “++ (++ - −40-70% destruction of the monolayer)”, the “destruction of the monolayer, drug” value ([1]; 200 μg/ml) was “− (−0-10% destruction of the monolayer)” and the “concentration with virulicidal effect” value [1] was 200 µg/mL. For the same compound, the “Number of colonies grown in a Petri dish” value (Rh. Oryzae; exposure 1 min, 0.1% solution) was 1.

`CCCCCCCCCCCCCC(=O)NCCC[N+](C)(C)Cc1ccccc1.O.[Cl-]` [Miramistin, benzyldimethyl [3-(myristoylamino)propyl]-ammonium chloride monohydrate] was tested, and the “destruction of the monolayer, drug” value ([1]; 100 μg/ml) was “+++ (+++ - 90-100% destruction of the monolayer)”, the “destruction of the monolayer, drug” value ([1]; 150 μg/ml) was “− (−0-10% destruction of the monolayer)” and the “destruction of the monolayer, drug” value ([1]; 200 μg/ml) was “− (−0-10% destruction of the monolayer)”. The “concentration with virulicidal effect” value [1] was 150 µg/mL, the “Number of colonies grown in a Petri dish” value (Rh. Oryzae; exposure 1 min, 0.1% solution) was 12 and the “Number of colonies grown in a Petri dish” value (Rh. Oryzae; exposure 1 min, 0.2% solution) was 2. The “Number of colonies grown in a Petri dish” value (Rh. Oryzae; exposure 1 min, 0.3% solution) was 1, the “Number of colonies grown in a Petri dish” value (Rh. Oryzae; exposure 5 min, 0.1% solution) was 10 and the “Number of colonies grown in a Petri dish” value (Rh. Oryzae; exposure 5 min, 0.2% solution) was 4. For the same compound, the “Number of colonies grown in a Petri dish” value (Rh. Oryzae; exposure 15 min, 0.1% solution) was 2.

“alkyldimethyl(phenylmethyl) ammonium chloride [Benzalconium chloride]” was tested, and the “destruction of the monolayer, drug” value ([1]; 150 μg/ml) was “++ (++ - −40-70% destruction of the monolayer)”, the “destruction of the monolayer, drug” value ([1]; 200 μg/ml) was “− (−0-10% destruction of the monolayer)” and the “Number of colonies grown in a Petri dish” value (Rh. Oryzae; exposure 1 min, 0.1% solution) was 1.
